Reference: ChEMBL document CHEMBL2046382, “Synthesis, biological evaluation of 5-carbomethoxymethyl-7-hydroxy-2-pentylchromone, 5-carboethoxymethyl-4',7-dihydroxyflavone and their analogues” (Bioorg Med Chem Lett, 2012)
≈ marks a conversion by molar mass, not a printed value. Calls of active or inactive are those of the source. No cut-off for these calls is given here.

Assays:
[1] = system: Staphylococcus aureus; experiment: Antibacterial activity against Staphylococcus aureus MTCC 2940 at 80 ug/ml by modified microtiter broth dilution method; assay type: functional, organism-based
[2] = system: Raoultella planticola; experiment: Antibacterial activity against Klebsiella planticola MTCC 530 by modified microtiter broth dilution method; assay type: functional
[3] = system: Escherichia coli; experiment: Antibacterial activity against Escherichia coli MTCC 739 by modified microtiter broth dilution method; assay type: functional
[4] = system: Micrococcus luteus; experiment: Antibacterial activity against Micrococcus luteus MTCC 2470 by modified microtiter broth dilution method; assay type: functional
[5] = Antioxidant activity of the compound assessed as inhibition of lipid peroxidation; assay type: functional
[6] = system: Staphylococcus aureus; experiment: Antibacterial activity against Staphylococcus aureus MTCC 96 at 80 ug/ml by modified microtiter broth dilution method; assay type: functional, organism-based
[7] = system: Pseudomonas aeruginosa; experiment: Antibacterial activity against Pseudomonas aeruginosa MTCC 2453 at 80 ug/ml by modified microtiter broth dilution method; assay type: functional, organism-based
[8] = Antioxidant activity assessed as superoxide radical scavenging activity; assay type: functional
[9] = Antioxidant activity in erythrocytes assessed as inhibition of hemolysis; assay type: functional, cell-based; conditions: erythrocyte
[10] = system: Radical scavenging activity; experiment: Antioxidant activity assessed as DPPH free radical scavenging activity; assay type: functional
[11] = system: Bacillus subtilis; experiment: Antibacterial activity against Bacillus subtilis MTCC 121 by modified microtiter broth dilution method; assay type: functional
[12] = system: Nakaseomyces glabratus; experiment: Antifungal activity against Candida glabrata MTCC 3019 by well diffusion method; assay type: functional
[13] = system: Candida parapsilosis; experiment: Antifungal activity against Candida parapsilosis MTCC 1744 by well diffusion method; assay type: functional; conditions: Lodderomyces parapsilosis
[14] = system: Candida albicans; experiment: Antifungal activity against Candida albicans MTCC 7315 by well diffusion method; assay type: functional
[15] = system: Candida albicans; experiment: Antifungal activity against Candida albicans MTCC 227 by well diffusion method; assay type: functional
[16] = system: Candida parapsilosis; experiment: Antifungal activity against Candida parapsilosis MTCC 3018 by well diffusion method; assay type: functional; conditions: Lodderomyces parapsilosis
[17] = system: Candida albicans; experiment: Antifungal activity against Candida albicans MTCC 854 by well diffusion method; assay type: functional
[18] = system: Candida albicans; experiment: Antifungal activity against Candida albicans MTCC 3958 by well diffusion method; assay type: functional
[19] = system: Escherichia coli; experiment: Antibacterial activity against Escherichia coli MTCC 739 at 80 ug/ml by modified microtiter broth dilution method; assay type: functional, organism-based
[20] = system: Candida albicans; experiment: Antifungal activity against Candida albicans MTCC 183 by well diffusion method; assay type: functional
[21] = system: Candida albicans; experiment: Antifungal activity against Candida albicans MTCC 1637 by well diffusion method; assay type: functional
[22] = system: Staphylococcus aureus; experiment: Antibacterial activity against Staphylococcus aureus MTCC 2940 by modified microtiter broth dilution method; assay type: functional
[23] = system: Pichia kudriavzevii; experiment: Antifungal activity against Issatchenkia orientalis MTCC 3020 by well diffusion method; assay type: functional
[24] = system: Candida albicans; experiment: Antifungal activity against Candida albicans MTCC 4748 by well diffusion method; assay type: functional
[25] = system: Candida albicans; experiment: Antifungal activity against Candida albicans MTCC 3017 by well diffusion method; assay type: functional
[26] = system: Staphylococcus aureus; experiment: Antibacterial activity against Staphylococcus aureus MTCC 96 by modified microtiter broth dilution method; assay type: functional
[27] = system: Bacillus subtilis; experiment: Antibacterial activity against Bacillus subtilis MTCC 121 at 80 ug/ml by modified microtiter broth dilution method; assay type: functional, organism-based
[28] = system: Raoultella planticola; experiment: Antibacterial activity against Klebsiella planticola MTCC 530 at 80 ug/ml by modified microtiter broth dilution method; assay type: functional, organism-based
[29] = system: Erythrocyte; experiment: Antioxidant activity in erythrocytes assessed as inhibition of hemolysis after 48 hrs; assay type: functional, cell-based
[30] = system: Radical scavenging activity; experiment: Antioxidant activity assessed as DPPH free radical scavenging activity after 48 hrs; assay type: functional
[31] = system: NCI60; experiment: Cytotoxicity against human NCI60 cells; assay type: functional, cell-based
[32] = Chemical stability of the compound in antioxidant reaction; assay type: physicochemical
[33] = Antioxidant activity assessed as superoxide radical scavenging activity after 48 hrs; assay type: functional
[34] = system: Pseudomonas aeruginosa; experiment: Antibacterial activity against Pseudomonas aeruginosa MTCC 2453 by modified microtiter broth dilution method; assay type: functional
[35] = Antioxidant activity of the compound assessed as inhibition of lipid peroxidation after 48 hrs; assay type: functional
[36] = system: Micrococcus luteus; experiment: Antibacterial activity against Micrococcus luteus MTCC 2470 at 80 ug/ml by modified microtiter broth dilution method; assay type: functional, organism-based

Row | Compound | Activity [1] | MIC [2] [µg/mL] | MIC [3] [µg/mL] | MIC [4] [µg/mL] | Activity [6] | Activity [7] | MIC [11] [µg/mL] | MIC [22] [µg/mL] | MIC [26] [µg/mL] | Activity [28] | Activity [29] | Activity [30] | Activity [31] | Stability [32] | Activity [33] | MIC [34] [µg/mL] | Activity [35] | Activity [36] | further results
1 | CCOC(=O)Cc1cc(O)cc2oc(-c3ccc(O)cc3)cc(=O)c12 | inactive | 9 (≈ 26.4 µM) | 9 (≈ 26.4 µM) | 9 (≈ 26.4 µM) | inactive | inactive | 9 (≈ 26.4 µM) |  |  |  |  |  |  |  |  |  |  |  | EC50 [5]: 171.54 µg/mL (≈ 504 µM); EC50 [8]: 77.71 µg/mL (≈ 228 µM); EC50 [9]: 151.1 µg/mL (≈ 444 µM); EC50 [10]: 71.11 µg/mL (≈ 209 µM)
2 | COC(=O)Cc1cc(O)cc2oc(-c3ccc(Cl)c(F)c3)cc(=O)c12 |  | 37 (≈ 102 µM) |  | 18 (≈ 49.6 µM) | inactive | inactive | 75 (≈ 207 µM) | 18 (≈ 49.6 µM) |  |  |  |  |  |  |  |  |  |  | MIC [12]: inactive; MIC [13]: 9 µg/mL (≈ 24.8 µM); MIC [14]: 9 µg/mL (≈ 24.8 µM); MIC [15]: inactive; MIC [16]: 9 µg/mL (≈ 24.8 µM); MIC [17]: 9 µg/mL (≈ 24.8 µM); MIC [18]: 4 µg/mL (≈ 11 µM); EC50 [5]: Not Active; Activity [19]: inactive; MIC [20]: inactive; MIC [21]: inactive; MIC [23]: inactive; MIC [24]: 4 µg/mL (≈ 11 µM); EC50 [8]: 60.92 µg/mL (≈ 168 µM); EC50 [9]: Not Active; EC50 [10]: 61.66 µg/mL (≈ 170 µM); MIC [25]: inactive
3 | O=c1cc(-c2ccc(O)c(O)c2)oc2cc(O)cc(O)c12 [LUTEOLIN] |  |  | 4 (≈ 14 µM) | 18 (≈ 62.9 µM) |  | inactive |  | 18 (≈ 62.9 µM) | 9 (≈ 31.4 µM) | inactive |  |  |  |  |  |  |  |  | Activity [27]: inactive; EC50 [5]: 134.1 µg/mL (≈ 468 µM); EC50 [8]: 31.01 µg/mL (≈ 108 µM); EC50 [9]: 122 µg/mL (≈ 426 µM); EC50 [10]: 44.18 µg/mL (≈ 154 µM)
4 | COC(=O)Cc1cc(O)cc2oc(-c3ccc(C)cc3)cc(=O)c12 |  | 18 (≈ 55.5 µM) | 4 (≈ 12.3 µM) | 18 (≈ 55.5 µM) |  |  | 4 (≈ 12.3 µM) | 18 (≈ 55.5 µM) | 9 (≈ 27.7 µM) |  | inactive | inactive | inactive | Unstable | inactive | 9 (≈ 27.7 µM) | inactive |  | 
5 | COC(=O)Cc1cc(O)cc2oc(-c3ccc(OC)c(OC)c3)cc(=O)c12 | inactive | 18 (≈ 48.6 µM) |  |  |  | inactive | 9 (≈ 24.3 µM) |  | 37 (≈ 99.9 µM) |  | inactive | inactive | inactive | Unstable | inactive |  | inactive | inactive | Activity [19]: inactive
6 | COC(=O)Cc1cc(O)cc2oc(-c3ccc(N)cc3)cc(=O)c12 | inactive |  |  |  | inactive | inactive | 9 (≈ 27.7 µM) |  |  | inactive | inactive | inactive | inactive | Unstable | inactive |  | inactive | inactive | Activity [19]: inactive
7 | COC(=O)Cc1cc(O)cc2oc(-c3ccc(OC)cc3)cc(=O)c12 | inactive |  | 18 (≈ 52.9 µM) |  | inactive |  | 9 (≈ 26.4 µM) |  |  | inactive | inactive | inactive | inactive | Unstable | inactive | 37 (≈ 109 µM) | inactive | inactive | 
8 | COC(=O)Cc1cc(O)cc2oc(-c3ccc(O)c(OC)c3)cc(=O)c12 |  | 9 (≈ 25.3 µM) | 4 (≈ 11.2 µM) | 18 (≈ 50.5 µM) |  |  | 4 (≈ 11.2 µM) | 18 (≈ 50.5 µM) | 9 (≈ 25.3 µM) |  | inactive | inactive | inactive | Unstable | inactive | 9 (≈ 25.3 µM) | inactive |  | 
9 | COC(=O)Cc1cc(O)cc2oc(-c3cc(OC)cc(OC)c3)cc(=O)c12 |  | 18 (≈ 48.6 µM) | 4 (≈ 10.8 µM) | 9 (≈ 24.3 µM) |  |  | 18 (≈ 48.6 µM) | 18 (≈ 48.6 µM) | 9 (≈ 24.3 µM) |  | inactive | inactive | inactive | Unstable | inactive | 9 (≈ 24.3 µM) | inactive |  | 
10 | COC(=O)Cc1cc(O)cc2oc(-c3ccc(OC)c(O)c3)cc(=O)c12 |  |  | 18 (≈ 50.5 µM) |  | inactive |  |  | 37 (≈ 104 µM) |  | inactive | inactive | inactive | inactive | Unstable | inactive | 9 (≈ 25.3 µM) | inactive | inactive | Activity [27]: inactive
11 | OC(Cn1cncn1)(Cn1cncn1)c1ccc(F)cc1F [FLUCONAZOLE] |  |  |  |  |  |  |  |  |  |  |  |  |  |  |  |  |  |  | MIC [12]: 64 µg/mL (≈ 209 µM); MIC [13]: 16 µg/mL (≈ 52.2 µM); MIC [14]: 32 µg/mL (≈ 104 µM); MIC [15]: 32 µg/mL (≈ 104 µM); MIC [16]: 16 µg/mL (≈ 52.2 µM); MIC [17]: 32 µg/mL (≈ 104 µM); MIC [18]: 64 µg/mL (≈ 209 µM); MIC [20]: 32 µg/mL (≈ 104 µM); MIC [21]: 32 µg/mL (≈ 104 µM); MIC [23]: 128 µg/mL (≈ 418 µM); MIC [24]: 32 µg/mL (≈ 104 µM); MIC [25]: 64 µg/mL (≈ 209 µM)
